Key:
Test in all cases: pS6 immunolabeling with OR in situ hybridization after odorant exposure
Type in all cases: in vivo, mouse
Set-up in all cases: key: y: neuronal activation (i.e. pS6 signal in a fraction of neuron exceeding 15% relative to controls); no pS6 signals
Conditions in all cases: 5% acetophenone, 60 minutes
OSNs expressing olfr490 = system: OSNs expressing olfr490
Protocol: (§1) In order to independently validate the identity of an acetophenone receptor obtained with the RNAseq approach, the potential colocalization following acetophenone exposure of a neuronal activity marker (the phosphorylated ribosomal protein S6 (pS6) (Knight et al., 2012, Cell, 151, 1126-1137) and specific olfactory receptors were evaluated. To this aim, in-situ hybridizations were performed on sections of olfactory tissue with probes targeting receptor mRNAs followed by immunolabeling of pS6. The probes used were directed against the transcripts of most of the ORs determined as responsive including Olfr983 transcripts (encoding a known acetophenone receptor), Olfr171 transcripts (encoding a known ethyl isobutyrate receptor), and Olfr145 transcripts, encoding a newly identified receptor by RNAseq. Before analysis, mice were exposed to either 5% acetophenone, 5% ethyl isobutyrate, or a negative control condition for 60 minutes. […] 66% (Olfr983) and 70% (Olfr145) of the neurons were positive for pS6 after acetophenone exposure, while only 11% of the neurons expressing Olfr171 were positive for pS6 after exposure to this compound.

OSNs expressing olfr1350 = system: OSNs expressing olfr1350
Protocol: as §1

OSNs expressing olfr378 = system: OSNs expressing olfr378
Protocol: as §1

CC(=O)c1ccccc1 [acetophenone]
n: olfr490 ps6 positive (OSNs expressing olfr490) | olfr1350 ps6 positive (OSNs expressing olfr1350) | olfr378 ps6 positive (OSNs expressing olfr378)

Reference: patent publication US10473645B2, “Methods for identifying a receptor for a ligand and uses thereof” (UNIVERSITE DE GENEVE, priority 2014, dated 2019)
